Results from US20120329721A1, “MEANS FOR PREVENTING AND TREATING CELLULAR DEATH AND THEIR BIOLOGICAL APPLICATIONS” (CHIESI FARMACEUTICI S.P.A., priority 2003, published 2012).
“Also recorded” adds a separate entry of the source. Where two headings read alike, the source gives them in different places. Residues, ends and D or L forms follow the SMILES beside them. *: point of attachment. Cbz = O=C(OCc1ccccc1)*; CH2F = FC*

Assays:
[1] = system: primary cortical neurons; type: cell-based; details: for survival / protection of SD-neurons against cell death (apoptosis hallmarks overall): 24 hr-SD, inhibitors 100 μM (BA 25 μM, furosemide 2 mM, siRNA 3.8 μg)
[2] = system: caspase-3; assay: In cellula caspase-3 like activity (FAM-DEVD-FMK FLICA or anti-cleaved caspase-3 antibody) in SD-neurons; type: cell-based, mouse; details: 24 hr-SD; inhibitors 100 μM (BA 25 μM)
[3] = system: caspase-8; assay: In cellula caspase-8 like activity (FAM-LETD-FMK FLICA) in SD-neurons; type: cell-based, mouse; details: 24 hr-SD; inhibitors 100 μM
[4] = system: caspase-9; assay: In cellula caspase-9 like activity (FAM-LEHD-FMK FLICA) in SD-neurons; type: cell-based, mouse; details: 24 hr-SD; inhibitors 100 μM (BA 25 μM)
Procedure: Neurons were incubated with 1/150 of the DMSO stock solution of the FLICA for 1 hr at 37° C. 7-AAD and Hoechst were added during the last 15 min. Then neurons were washed three times in washing buffer (CaspaTag™ Kit). […] Cleaved caspase-3 was evidenced in cellula by immunodetection using Phycoerythrin (PE)-conjugated polyclonal antibodies (Beckton Dickinson). Neurons were stained by 7-AAD, trypsinized and fixed in PBS containing 1% PFA and 20 μg/ml Actinomycin D (AD) for 20 min. […] After washings in PBS, PE-related fluorescence was analysed on the cytometer (Fl-2 channel). Z-val-Ala-Asp(OMe)-FMK (Z-VAD-FMK), Quinoline-Val-Asp (OMe)-CH2-O-Ph (Q-VD-OPH), Z-DEVD-FMK ([…], ICN) and Z-LEHD-FMK ([…], all purchased from ICN (Orsay, France), and 4-(2-Aminoethyl)benzenesulfonyl fluoride (AEBSF, Pefabloc SC, Roche, Meylan, France) were added at 100 μM at the initiation of serum deprivation. Sulforhodamine-DEVD-FMK, (CaspaTag™ Red Activity Kit) permitted to detect activated caspase-3 and FITC-Annexin V. Neurons were incubated with 1/900 of the DMSO stock solution of the FLICA, and 1× FITC-annexin V in 200 μl of annexin-buffer for 30 min at 37° C. Then neurons were washed three times in a buffer composed of 50% washing buffer and 50% annexin-buffer. […] For FM, FLICA was excited through the BP515-560 filter and its fluorescence was collected through the LP590 long pass emission filter.
Neurons were loaded with 1 μM JC-1 for 30 min at 37° C. […] JC-1 monomers were detected in the Fl-1 channel by FC. […] Activated caspase-2, -3, -8 and -9 were detected using specific FAM-conjugated peptides (called Fluorochrome Labeled Inhibitor of Caspase, FLICA: CaspaTag™ fluorescein Caspase Activity Kits, Q-Biogen, Illkirch, France; ApoFluor™ Caspase Detection Kits, ICN, Orsay, France): FAM-VDVAD-FMK, FAM-DEVD-FMK, FAM-LETD-FMK and FAM-LEHD-FMK, respectively. Neurons were incubated with FLICAs (1:150, CaspaTag™ or 1:500, ApoFluor™) for 1 hr at 37° C., then washed three times in washing buffer. […] Phosphatidylserine (PS) exposure to the outer leaflet of the plasma membrane was detected through the fixation of FITC conjugated-annexin V (Immunotech).

[5] = target: T1, human recombinant caspase-2 (Homo sapiens, UniProt P42575); assay: In vitro VDVAD-AMC cleavage by recombinant caspase-2; type: biochemical; details: inhibitor 2 μM, 50 μM VDVAD-AMC, caspase-2 125 U, 30 min at 37° C.
T1 construct: purchased BIOMOL
T1 sequence (P42575 170-325 limits assumed): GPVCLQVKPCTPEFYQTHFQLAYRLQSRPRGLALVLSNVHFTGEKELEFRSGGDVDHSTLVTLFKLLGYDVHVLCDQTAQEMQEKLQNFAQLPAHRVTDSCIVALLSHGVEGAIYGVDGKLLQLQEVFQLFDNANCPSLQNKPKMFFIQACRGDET
T1 sequence (P42575 348-452 limits assumed): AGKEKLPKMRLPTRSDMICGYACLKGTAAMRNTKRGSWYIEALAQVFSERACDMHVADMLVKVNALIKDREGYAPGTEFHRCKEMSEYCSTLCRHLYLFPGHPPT
Procedure: Activity of human recombinant caspase-2 (BIOMOL QuantiZyme™ Assay System) was assessed in 100 μl assay buffer (50 mM HEPES, pH 7.4, 100 mM NaCl, 0.1% CHAPS, 10 mM DTT, 1 mM EDTA, 10% glycerol).

[6] = system: Jurkat cells; assay: VP16-induced cell death of Jurkat cells, cytoprotection assay; type: cell-based, human; details: for terminal nuclear alterations and PMP in VP16-treated Jurkat cells / ΔΨm loss in VP16-treated Jurkat cells: VP16 10 μM, 7-8 hrs, inhibitors 50 μM
[7] = system: caspase-2; assay: Caspase-2 activation (FLICA) in VP16-treated Jurkat cells; type: cell-based, human; details: VP16 10 μM, 7 hrs; inhibitors 50 μM
[8] = system: caspase-3; assay: Caspase-3 activation (FLICA) in VP16-treated Jurkat cells; type: cell-based, human; details: VP16 10 μM, 7 hrs; inhibitors 50 μM
[9] = system: caspase-2; assay: In cellula caspase-2 like activity (FAM-VDVAD-FMK FLICA; Western blotting) in SD-neurons; type: cell-based, mouse
[10] = system: cytochrome c; assay: Immunodetection of cytochrome c release in SD-neurons; type: cell-based, mouse; details: 24 hr-SD, inhibitors 100 μM
[11] = system: Bax; assay: Bax translocation to mitochondria in SD-neurons (Δ21 antibody immunostaining, subcellular fractionation); type: cell-based, mouse; details: 24 hr-SD, inhibitors 100 μM (furosemide 2 mM)
[12] = system: Bax α; assay: Bax cleavage (p22 to p18) in SD-neurons by Western blotting; type: cell-based, mouse; details: 24 hr-SD, Western Blotting Δ21 antibody; VDVAD/QVDOPH 100 μM, ALLN/ALLM 25 μM, E64d 25-50 μM, lactacystin 1-10 μM, epoxomycin 10 μM
Procedure: Neurons were lysed at RT in 25 mM Tris-HCl pH 7.4, 25 mM NaCl, 5 mM EDTA, 1% Triton X-100 supplemented by complete protease inhibitors cocktail (Roche). Protein concentration was determined using the Bio-Rad protein assay kit. Proteins (30 μg for caspase-2; 10 μg for Bax) were separated on 12.5% polyacrylamide gels and transferred to PVDF membranes (Amersham). […] The monoclonal anti-mouse caspase-2antibody (11B4, Alexis Biochemicals) was used at a 1:1000 dilution; polyclonal antibody (Δ21, Santa Cruz Biotechnology) raised against mouse Bax α deleted for the carboxy terminal 21 amino acids was used at a 1:200 dilution; polyclonal antibody (N20, Santa Cruz Biotechnology) raised against the amino terminus of Bax α (recognizing residues 11 to 30) was used at a 1:1000 dilution. Actin (42 kDa; Sigma; 1:5000) is used as an equal loading control. Immunoblotting of heat-shock protein 60 (HSP60) with a mouse monoclonal anti-HSP (Sigma; 1:400) was used to check the purity of the heavy membrane fraction enriched in mitochondria.

[13] = system: primary cortical neurons; assay: Cortical neuron death induced by other stimuli (ionomycin, staurosporine, β-amyloid 25-35, MPTP, 3-NPA, SNP); type: cell-based, mouse; details: for protection against ionomycin-induced neuronal cell death: ionomycin 6 μM, 24 hrs
[14] = system: Jurkat cells; details: model of Robertson et al., 2002; cited from earlier work

With `COC(=O)CCC(NC(=O)C(CC(C)C)NC(=O)OCc1ccccc1)C(=O)NC(C(=O)NC(CC(=O)OC)C(=O)CF)C(C)O` (centres unmarked) [Z-LETD-FMK, N-benzyloxycarbonyl-Leu-Glu(Ome)-Thr-Asp(OMe)-fluoromethylketone] (Cbz-LE(OMe)TD(OMe)-CH2F; configuration not given here) the “survival / protection of SD-neurons against cell death (apoptosis hallmarks overall)” value (“survival / protection of SD-neurons” below) [1] was “failed to protect neurons from SD”, the “caspase-3 like activity / activation in SD-neurons” value [2] was “failed also to block” and the “caspase-8 like activity in SD-neurons” value [3] was “abolishing”. For the same compound, the “caspase-9 like activity / activation in SD-neurons” value [4] was “failed also to block”, the “inhibition of VDVAD-AMC cleavage by recombinant caspase-2” value [5] was “did not interfere highly; also recorded: not strongly inactivated” and the “terminal nuclear alterations and PMP in VP16-treated Jurkat cells” value [6] was “unable to prevent”. For the same compound, the “ΔΨm loss in VP16-treated Jurkat cells” value [6] was “not abolished; also recorded: unable to prevent”, the “caspase-2 activation in VP16-treated Jurkat cells” value [7] was “do not impair caspase-2 activation; also recorded: unable to prevent” and the “caspase-3 activation in VP16-treated Jurkat cells” value [8] was “unable to prevent”.
For `COC(=O)CC(NC(=O)C(C)NC(=O)C(NC(=O)C(CC(=O)OC)NC(=O)C(NC(=O)OCc1ccccc1)C(C)C)C(C)C)C(=O)CF` (stereo not drawn) [Z-VDVAD-FMK, N-benzyloxy-carbonyl-Val-Asp(Ome)-Val-Ala-Asp(OMe)-fluoromethylketone] (Cbz-VD(OMe)VAD(OMe)-CH2F; configuration not given here), the “survival / protection of SD-neurons” value [1] was “abolish loss of ΔΨm loss as well as others hallmarks of apoptosis”, the “survival / protection of SD-neurons” value ([1]; listed as VDVAD) was “abolishes these hallmarks of apoptosis” and the “concentration required for optimal survival / higher protective effect” value ([1]; dose-response, inhibitor added at the initiation of 24 hr-SD) was 100 µM. For the same compound, the “caspase-2 like activity / activation in SD-neurons” value [9] was “abolished; also recorded: abolish caspase-2 activation; also recorded: impair both Bax translocation and caspase-2 activity; also recorded: blocks”, the “decrease of procaspase-2 protein content (processing into p14 form) in SD-neurons” value ([9]; 24 hr-SD, 100 μM, Western Blotting 11B4) was “prevents it” and the “caspase-3 like activity / activation in SD-neurons” value [2] was “inhibited; also recorded: prevent downstream cytochrome c release-dependent activation”. For the same compound, the “caspase-9 like activity / activation in SD-neurons” value [4] was “inhibited; also recorded: prevent downstream cytochrome c release-dependent activation”, the “cytochrome c release from mitochondria in SD-neurons” value [10] was “efficiently blocked” and the “cytochrome c release from mitochondria in SD-neurons” value ([10]; listed as VDVAD) was “reduce post-mitochondrial cytochrome c release”. The “Bax translocation (relocation) to mitochondria in SD-neurons” value [11] was “impair Bax translocation to mitochondria; also recorded: impair both Bax translocation and caspase-2 activity”, the “Bax translocation (relocation) to mitochondria in SD-neurons” value ([11]; listed as VDVAD) was “prevented; also recorded: blocks; also recorded: prevents integration of p18 Bax into mitochondrial membrane” and the “Bax cleavage (p18 Bax) in SD-neurons” value [12] was “prevent Bax cleavage”. The “cell death induced by staurosporine or ionomycin” value ([13]; cortical neurons) was “is not prevented”, the “protection against ionomycin-induced neuronal cell death” value [13] was “provides no protective effect; also recorded: absence of protective effect” and the “protection against ionomycin-induced neuronal cell death” value ([13]; listed as VDVAD) was “absence of protection”. The “inhibition of VDVAD-AMC cleavage by recombinant caspase-2” value [5] was “blocked”, the “cell death induced by VP16 (survival)” value ([6]; Jurkat cells, VP16 7-8 hrs, inhibitors 25-100 μM pre-treatment, siRNA 24 hrs before) was “protective effect; also recorded: prevents cell death” and the “terminal nuclear alterations and PMP in VP16-treated Jurkat cells” value [6] was “mostly prevent”. For the same compound, the “ΔΨm loss in VP16-treated Jurkat cells” value [6] was “blocked ΔΨm loss” and the “cytochrome c release and phosphatidylserine residues exposure in Jurkat T cells” value [14] was “decreased partially”.
